Values of other authors, collected in paper PMC11053612, “Membrane-Fusing Vehicles for Re-Sensitizing Transporter-Mediated Multiple-Drug Resistance in Cancer” (Pharmaceutics, 2024).

What was measured:
Details in all cases: ref [23],[24],[25],[26]
[1] = target: T1, ABCC1 (Homo sapiens, UniProt P33527); set-up: method as in PMID 23470221, PMID 7999426, PMID 11309820, PMID 14973080; key: +: whether they are actively transported or not; −: whether they are actively transported or not
T1 construct: expressed in transfected cells; host or cells: MDCK II MRP1 (canine kidney MDCK II, transfected; gift of Dr. A. Schinkel, Netherlands Cancer Institute)

[2] = test system: ABCG2; set-up: method as in PMID 23470221, PMID 7999426, PMID 11309820, PMID 14973080; key: +: whether they are actively transported or not; −: whether they are actively transported or not
[3] = target: T2, ABCB1 (Homo sapiens, UniProt P08183); set-up: method as in PMID 23470221, PMID 7999426, PMID 11309820, PMID 14973080; key: +: whether they are actively transported or not
T2 construct: expressed in transfected cells; host or cells: MDCK II MDR1 (canine kidney MDCK II, transfected; gift of Dr. A. Schinkel, Netherlands Cancer Institute)
T2 sequence (P08183 whole entry): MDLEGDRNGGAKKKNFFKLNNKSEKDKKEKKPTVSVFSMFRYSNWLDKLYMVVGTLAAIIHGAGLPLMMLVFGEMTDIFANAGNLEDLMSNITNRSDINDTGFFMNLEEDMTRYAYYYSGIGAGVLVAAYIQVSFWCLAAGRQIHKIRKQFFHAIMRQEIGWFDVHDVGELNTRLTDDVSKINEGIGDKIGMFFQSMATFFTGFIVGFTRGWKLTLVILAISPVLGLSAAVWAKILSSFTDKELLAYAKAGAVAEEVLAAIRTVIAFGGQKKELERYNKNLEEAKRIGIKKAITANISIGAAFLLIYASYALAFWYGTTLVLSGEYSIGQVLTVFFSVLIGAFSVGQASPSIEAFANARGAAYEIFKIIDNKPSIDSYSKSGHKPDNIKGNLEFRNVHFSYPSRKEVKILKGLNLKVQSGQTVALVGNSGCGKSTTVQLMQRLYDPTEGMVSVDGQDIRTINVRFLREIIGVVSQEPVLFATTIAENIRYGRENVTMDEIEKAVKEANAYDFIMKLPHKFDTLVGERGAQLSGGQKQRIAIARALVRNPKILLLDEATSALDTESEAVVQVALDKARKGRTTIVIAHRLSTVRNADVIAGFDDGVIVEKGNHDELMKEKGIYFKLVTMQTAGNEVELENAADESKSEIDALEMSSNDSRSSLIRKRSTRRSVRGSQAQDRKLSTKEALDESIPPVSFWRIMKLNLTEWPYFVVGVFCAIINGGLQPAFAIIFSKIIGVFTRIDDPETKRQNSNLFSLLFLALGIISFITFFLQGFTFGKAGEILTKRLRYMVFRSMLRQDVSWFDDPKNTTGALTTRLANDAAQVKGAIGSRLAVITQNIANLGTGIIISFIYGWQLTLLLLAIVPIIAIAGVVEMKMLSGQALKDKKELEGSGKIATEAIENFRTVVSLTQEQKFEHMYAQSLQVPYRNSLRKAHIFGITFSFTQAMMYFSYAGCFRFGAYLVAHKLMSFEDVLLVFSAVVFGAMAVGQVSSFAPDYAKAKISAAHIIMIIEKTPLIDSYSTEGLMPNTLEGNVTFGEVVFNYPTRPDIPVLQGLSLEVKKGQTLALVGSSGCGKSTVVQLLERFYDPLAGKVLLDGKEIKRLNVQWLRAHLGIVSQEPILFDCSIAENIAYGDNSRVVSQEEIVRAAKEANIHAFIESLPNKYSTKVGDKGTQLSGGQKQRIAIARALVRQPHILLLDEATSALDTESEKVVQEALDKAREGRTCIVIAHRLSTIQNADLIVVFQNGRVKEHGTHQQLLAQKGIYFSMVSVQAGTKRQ

T1 sequence (P33527 whole entry): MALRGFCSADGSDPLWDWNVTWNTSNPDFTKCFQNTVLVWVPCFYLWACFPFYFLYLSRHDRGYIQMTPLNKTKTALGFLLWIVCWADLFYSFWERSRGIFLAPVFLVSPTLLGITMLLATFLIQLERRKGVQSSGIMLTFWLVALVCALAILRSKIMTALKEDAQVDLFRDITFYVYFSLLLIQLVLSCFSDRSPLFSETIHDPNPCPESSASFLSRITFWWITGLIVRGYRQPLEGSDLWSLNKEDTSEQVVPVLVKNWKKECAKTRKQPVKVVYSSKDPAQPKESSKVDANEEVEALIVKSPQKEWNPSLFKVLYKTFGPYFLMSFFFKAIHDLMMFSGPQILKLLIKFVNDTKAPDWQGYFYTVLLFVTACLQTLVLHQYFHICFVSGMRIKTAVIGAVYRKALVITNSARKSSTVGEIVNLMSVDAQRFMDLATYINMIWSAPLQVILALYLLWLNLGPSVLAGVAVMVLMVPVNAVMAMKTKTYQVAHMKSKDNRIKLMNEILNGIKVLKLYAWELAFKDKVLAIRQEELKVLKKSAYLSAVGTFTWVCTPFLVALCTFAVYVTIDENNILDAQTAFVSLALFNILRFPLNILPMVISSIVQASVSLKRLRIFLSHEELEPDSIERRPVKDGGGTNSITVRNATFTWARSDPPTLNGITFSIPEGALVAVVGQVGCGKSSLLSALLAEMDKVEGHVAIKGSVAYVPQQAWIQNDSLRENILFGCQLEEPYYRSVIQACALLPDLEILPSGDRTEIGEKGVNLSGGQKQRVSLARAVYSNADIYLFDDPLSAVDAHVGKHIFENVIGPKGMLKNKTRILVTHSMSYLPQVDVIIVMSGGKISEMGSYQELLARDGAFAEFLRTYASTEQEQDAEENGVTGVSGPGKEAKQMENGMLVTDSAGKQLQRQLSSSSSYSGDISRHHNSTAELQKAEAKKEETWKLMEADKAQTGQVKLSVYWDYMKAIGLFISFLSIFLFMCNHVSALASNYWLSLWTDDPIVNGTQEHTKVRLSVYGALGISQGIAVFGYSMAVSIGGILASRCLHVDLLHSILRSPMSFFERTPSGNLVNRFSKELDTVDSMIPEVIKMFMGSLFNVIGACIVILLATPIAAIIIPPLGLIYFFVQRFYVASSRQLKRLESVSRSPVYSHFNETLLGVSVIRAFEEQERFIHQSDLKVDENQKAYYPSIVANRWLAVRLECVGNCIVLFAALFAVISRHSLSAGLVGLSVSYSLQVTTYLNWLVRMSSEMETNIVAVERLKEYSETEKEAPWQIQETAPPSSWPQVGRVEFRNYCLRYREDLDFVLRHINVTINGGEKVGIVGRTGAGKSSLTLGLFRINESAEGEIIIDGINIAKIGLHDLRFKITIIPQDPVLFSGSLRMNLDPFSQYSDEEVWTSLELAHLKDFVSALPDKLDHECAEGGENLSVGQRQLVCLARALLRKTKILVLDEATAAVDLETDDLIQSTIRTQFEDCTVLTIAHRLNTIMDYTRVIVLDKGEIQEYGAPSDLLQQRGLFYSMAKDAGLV

| actively transported by ABCC1 [1] | Compound | actively transported by ABCG2 [2] | actively transported by ABCB1 [3] |
| --- | --- | --- | --- |
| + | O=C(O)CN(CC(=O)O)Cc1cc2c(cc1O)Oc1cc(O)c(CN(CC(=O)O)CC(=O)O)cc1C21OC(=O)c2ccccc21 [Calcein] | − | + |
| − | CCOc1ccc(-c2nc3ccc(-c4nc5ccc(N6CCN(C)CC6)cc5[nH]4)cc3[nH]2)cc1 [Hoechst 33324] | + |  |
| − | C=Cc1c(C)c2cc3nc(c4c5[nH]c(cc6nc(cc1[nH]2)C(C)=C6CC)c(C)c5C(=O)[C@@H]4C(=O)OC)[C@@H](CCC(=O)O)[C@@H]3C [Pheophorbide A] | + |  |

| Compound | actively transported by ABCC1 [1] | actively transported by ABCG2 [2] | actively transported by ABCB1 [3] |
| --- | --- | --- | --- |
| COC(=O)c1ccccc1-c1c2ccc(=N)cc-2oc2cc(N)ccc12 [Rhodamine 123] | + | − | + |
